# Results taken from PubChem BioAssay (NCI).
# Several values for one entry are separate records, joined by “and”; a condition that tells them apart may be missing. Identical values can stand only once.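 Tested at 5 concentrations; 48 h exposure; 96-well plates; endpoints linearly interpolated, else capped at highest concentration. At the TGI there is no net growth.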
# What was measured:
# Test in all cases: DTP human tumour cell line panel, 48 h
# KM20L2 colon = test system: KM20L2 colon
# A498 renal = test system: A498 renal
# SF-539 CNS = test system: SF-539 CNS
# NCI-H522 lung = test system: NCI-H522 lung
# SK-OV-3 ovarian = test system: SK-OV-3 ovarian
# EKVX NSCLC = test system: EKVX NSCLC
# UACC-257 melanoma = test system: UACC-257 melanoma
# A549 NSCLC = test system: A549 NSCLC
# SK-MEL-5 melanoma = test system: SK-MEL-5 melanoma
# NCI-H460 lung = test system: NCI-H460 lung
# NCI-H23 lung = test system: NCI-H23 lung
# OVCAR-8 ovarian = test system: OVCAR-8 ovarian
# RXF 393 renal = test system: RXF 393 renal
# SK-MEL-28 melanoma = test system: SK-MEL-28 melanoma
# SF-295 CNS = test system: SF-295 CNS
# MALME-3M melanoma = test system: MALME-3M melanoma
# SNB-78 CNS = test system: SNB-78 CNS
# HCC-2998 colon = test system: HCC-2998 colon
# 786-0 renal = test system: 786-0 renal
# KM12 colon = test system: KM12 colon
# DLD-1 colon = test system: DLD-1 colon
# LXFL 529 NSCLC = test system: LXFL 529 NSCLC
# RPMI-8226 leukemia = test system: RPMI-8226 leukemia
# CAKI-1 renal = test system: CAKI-1 renal
# K-562 leukemia = test system: K-562 leukemia
# SN12C renal = test system: SN12C renal
# CCRF-CEM leukemia = test system: CCRF-CEM leukemia
# HL-60(TB) leukemia = test system: HL-60(TB) leukemia
# HCT-116 colon = test system: HCT-116 colon
# SK-MEL-2 melanoma = test system: SK-MEL-2 melanoma
# HCT-15 colon = test system: HCT-15 colon
# NCI-H226 lung = test system: NCI-H226 lung
# MOLT-4 leukemia = test system: MOLT-4 leukemia
# SF-268 CNS = test system: SF-268 CNS
# U251 CNS = test system: U251 CNS
# COLO 205 colon = test system: COLO 205 colon
# UO-31 renal = test system: UO-31 renal
# M14 melanoma = test system: M14 melanoma
# OVCAR-3 ovarian = test system: OVCAR-3 ovarian
# HOP-62 NSCLC = test system: HOP-62 NSCLC
# SW-620 colon = test system: SW-620 colon
# HT29 colon = test system: HT29 colon
# TK-10 renal = test system: TK-10 renal
# UACC-62 melanoma = test system: UACC-62 melanoma
# SNB-75 CNS = test system: SNB-75 CNS
# LOX IMVI melanoma = test system: LOX IMVI melanoma
# OVCAR-5 ovarian = test system: OVCAR-5 ovarian
# ACHN renal = test system: ACHN renal
# SNB-19 CNS = test system: SNB-19 CNS
# IGROV1 ovarian = test system: IGROV1 ovarian
# DMS 114 small cell lung = test system: DMS 114 small cell lung
# M19-MEL melanoma = test system: M19-MEL melanoma
# DMS 273 small cell lung = test system: DMS 273 small cell lung
# SR leukemia = test system: SR leukemia
# T-47D breast = test system: T-47D breast
# MCF7 breast = test system: MCF7 breast
# MDA-MB-231 breast = test system: MDA-MB-231 breast
# HOP-18 NSCLC = test system: HOP-18 NSCLC
# OVCAR-4 ovarian = test system: OVCAR-4 ovarian
# HOP-92 NSCLC = test system: HOP-92 NSCLC
# MDA-N = test system: MDA-N
# HS 578T breast = test system: HS 578T breast
# PC-3 prostate = test system: PC-3 prostate
# BT-549 breast = test system: BT-549 breast
# DU-145 prostate = test system: DU-145 prostate
structure (smiles),measurement,setting,value
COc1nc(=O)cc(N)n1C1OC(CO)C(O)C1O (configuration not stated),TGI,KM20L2 colon,> 100 µM
same,TGI,A498 renal,> 100 µM
same,TGI,SF-539 CNS,> 100 µM
same,TGI,NCI-H522 lung,> 100000 nM
same,TGI,SK-OV-3 ovarian,> 100 µM
same,TGI,EKVX NSCLC,> 100 µM
same,TGI,UACC-257 melanoma,> 100 µM
same,TGI,A549 NSCLC,> 100000 nM
same,TGI,SK-MEL-5 melanoma,> 100 µM
same,TGI,NCI-H460 lung,> 100 µM
same,TGI,NCI-H23 lung,> 100 µM
same,TGI,OVCAR-8 ovarian,> 100 µM
same,TGI,RXF 393 renal,> 100 µM
same,TGI,SK-MEL-28 melanoma,> 100 µM
same,TGI,SF-295 CNS,> 100 µM
same,TGI,MALME-3M melanoma,> 100 µM
same,TGI,SNB-78 CNS,> 100 µM
same,TGI,HCC-2998 colon,> 100 µM
same,TGI,786-0 renal,> 100 µM
same,TGI,KM12 colon,> 100000 nM
same,TGI,DLD-1 colon,> 100 µM
same,TGI,LXFL 529 NSCLC,> 100 µM
same,TGI,RPMI-8226 leukemia,> 100 µM
same,TGI,CAKI-1 renal,> 100 µM
same,TGI,K-562 leukemia,> 100000 nM
same,TGI,SN12C renal,> 100 µM
same,TGI,CCRF-CEM leukemia,> 100 µM
same,TGI,HL-60(TB) leukemia,> 100000 nM
same,TGI,HCT-116 colon,> 100 µM
same,TGI,SK-MEL-2 melanoma,> 100 µM
same,TGI,HCT-15 colon,> 100 µM
same,TGI,NCI-H226 lung,> 100 µM
same,TGI,MOLT-4 leukemia,> 100 µM
same,TGI,SF-268 CNS,> 100 µM
same,TGI,U251 CNS,> 100 µM
same,TGI,COLO 205 colon,> 100 µM
same,TGI,UO-31 renal,> 100 µM
same,TGI,M14 melanoma,> 100 µM
same,TGI,OVCAR-3 ovarian,> 100 µM
same,TGI,HOP-62 NSCLC,> 100 µM
same,TGI,SW-620 colon,> 100 µM
same,TGI,HT29 colon,> 100 µM
same,TGI,TK-10 renal,> 100 µM
same,TGI,UACC-62 melanoma,> 100 µM
same,TGI,SNB-75 CNS,> 100 µM
same,TGI,LOX IMVI melanoma,> 100 µM
same,TGI,OVCAR-5 ovarian,> 100 µM
same,TGI,ACHN renal,> 100 µM
same,TGI,SNB-19 CNS,> 100 µM
same,TGI,IGROV1 ovarian,> 100 µM
same,TGI,DMS 114 small cell lung,> 100 µM
same,TGI,M19-MEL melanoma,> 100 µM
same,TGI,DMS 273 small cell lung,> 100000 nM
C=C[C@]1(C)CC(O)C2C(=C)C(=O)OC2[C@H]1C(=C)C=O (some centres not stated),TGI,KM20L2 colon,17.4 µM
same,TGI,SR leukemia,20 µM
same,TGI,A498 renal,14.7 µM
same,TGI,SF-539 CNS,10.5 µM
same,TGI,NCI-H522 lung,2350 nM
same,TGI,SK-OV-3 ovarian,66.2 µM
same,TGI,EKVX NSCLC,33.7 µM
same,TGI,UACC-257 melanoma,4.31 µM
same,TGI,A549 NSCLC,43600 nM
same,TGI,SK-MEL-5 melanoma,6.66 µM
same,TGI,NCI-H460 lung,31.8 µM
same,TGI,NCI-H23 lung,7.62 µM
same,TGI,T-47D breast,9.35 µM
same,TGI,OVCAR-8 ovarian,6.74 µM
same,TGI,RXF 393 renal,4.83 µM
same,TGI,SK-MEL-28 melanoma,4.37 µM
same,TGI,MCF7 breast,3.18 µM
same,TGI,SF-295 CNS,30.2 µM
same,TGI,MALME-3M melanoma,3.62 µM
same,TGI,SNB-78 CNS,13.4 µM
same,TGI,HCC-2998 colon,27.9 µM
same,TGI,786-0 renal,4.47 µM
same,TGI,MDA-MB-231 breast,10.3 µM
same,TGI,KM12 colon,12500 nM
same,TGI,DLD-1 colon,6.73 µM
same,TGI,LXFL 529 NSCLC,3.47 µM
same,TGI,RPMI-8226 leukemia,5.94 µM
same,TGI,HOP-18 NSCLC,15.1 µM
same,TGI,CAKI-1 renal,13.5 µM
same,TGI,K-562 leukemia,8520 nM
same,TGI,SN12C renal,5.88 µM
same,TGI,CCRF-CEM leukemia,4.4 µM
same,TGI,HL-60(TB) leukemia,2410 nM
same,TGI,HCT-116 colon,3.26 µM
same,TGI,OVCAR-4 ovarian,17700 nM
same,TGI,SK-MEL-2 melanoma,13.4 µM
same,TGI,HCT-15 colon,7.22 µM
same,TGI,NCI-H226 lung,13.9 µM
same,TGI,MOLT-4 leukemia,21.8 µM
same,TGI,HOP-92 NSCLC,6.08 µM
same,TGI,SF-268 CNS,8.21 µM
same,TGI,U251 CNS,24.8 µM
same,TGI,COLO 205 colon,21.7 µM
same,TGI,MDA-N,36.8 µM
same,TGI,UO-31 renal,13.7 µM
same,TGI,M14 melanoma,8.18 µM
same,TGI,HS 578T breast,> 100 µM
same,TGI,PC-3 prostate,10 µM
same,TGI,OVCAR-3 ovarian,7.24 µM
same,TGI,HOP-62 NSCLC,34 µM
same,TGI,SW-620 colon,4.19 µM
same,TGI,HT29 colon,7.05 µM
same,TGI,TK-10 renal,11.4 µM
same,TGI,UACC-62 melanoma,3.83 µM
same,TGI,BT-549 breast,15.8 µM
same,TGI,SNB-75 CNS,47.9 µM
same,TGI,LOX IMVI melanoma,4.6 µM
same,TGI,OVCAR-5 ovarian,24.8 µM
same,TGI,ACHN renal,6.33 µM
same,TGI,SNB-19 CNS,44.1 µM
same,TGI,IGROV1 ovarian,25 µM
same,TGI,DMS 114 small cell lung,22.6 µM
same,TGI,M19-MEL melanoma,7.98 µM
same,TGI,DU-145 prostate,27.1 µM
COc1cc2c(cc1OC)-c1cc(OC)c(OC)cc1[C@H]1CN3CCC[C@@]3(O)C=C21,TGI,SR leukemia,< 0.0001 µM
same,TGI,NCI-H522 lung,< 0.1 nM
same,TGI,A549 NSCLC,106 nM and 414 nM
same,TGI,SK-MEL-5 melanoma,0.000139 µM
same,TGI,NCI-H23 lung,0.000267 µM
same,TGI,RXF 393 renal,0.0126 µM
same,TGI,MALME-3M melanoma,< 0.0001 µM
same,TGI,SNB-78 CNS,0.00164 µM
same,TGI,HCC-2998 colon,0.0437 µM
same,TGI,KM12 colon,3.16 nM and 15.2 nM
same,TGI,HOP-18 NSCLC,0.000164 µM
same,TGI,CAKI-1 renal,0.000403 µM
same,TGI,K-562 leukemia,101 nM and 52.1 nM
same,TGI,HL-60(TB) leukemia,< 0.1 nM
same,TGI,HCT-116 colon,0.0101 µM
same,TGI,OVCAR-4 ovarian,3.2 nM and 11.7 nM
same,TGI,SK-MEL-2 melanoma,< 0.0001 µM
same,TGI,NCI-H226 lung,0.00253 µM
same,TGI,COLO 205 colon,< 0.0001 µM
same,TGI,M14 melanoma,0.000105 µM
same,TGI,TK-10 renal,0.161 µM
same,TGI,ACHN renal,0.000787 µM
same,TGI,DMS 114 small cell lung,0.00117 µM
same,TGI,M19-MEL melanoma,0.000362 µM
same,TGI,DMS 273 small cell lung,0.208 nM
